From EP2812315B1, “PYRROLIC DERIVATIVES, PROCESSES FOR PREPARING THE SAME AND THEIR USES AS A DRUG” (Universite Joseph Fourier, priority 2012, dated 2013)
In brackets after ≈: the same amount, converted by molar mass.

Experiments:
Experiment in all cases: Other MIC determination, microdilution method (CLSI M07-A9) with modifications
Type in all cases: cell-based
[1] = tested on: Staphylococcus hominis (CHUG-Shom4); settings: clinical strain
Experimental: (§1) The microdilution method recommended by the Clinical and Laboratory Standard Institute [M07-A9, Vol.32, N°2] was used with the following modifications.
(§2) Bacterial inocula were prepared in Mueller Hinton broth (MH2, BioMérieux, Marcy L'Etoile, France). They were dispensed in 96 well microtiter plates (10^6 CFU/ml of final inoculum, 192 µL per well).
(§3) To avoid cross-contaminations in microtiter plates, one row was left blank between each strain tested. Microplates were incubated for 18h at 37 °C in ambient air. Then MICs were read visually and, in case of visual reading difficulties, confirmed using a spectrophotometer at a wavelength of 630 nm (BioTek® EL808 Absorbance Microplate Reader). MICs corresponded to the minimum pyrrolic compound concentrations that allowed complete visual growth inhibition of bacteria. Drug-free cultures served as growth controls.
(§4) We used four Staphylococcus aureus strains. Two reference strains were provided by the French reference center for Staphylococcus spp. (Lyon, France), including one methicillin-susceptible (MSSA 476) and one methicillin-resistant (MRSA 252) S. aureus strains. The two remaining S. aureus strains were purchased from the CRBIP (Centre de Ressources Biologiques de l'Institut Pasteur): a vancomycin-intermediate strain (ATCC 106414) and a S. aureus strain (SA-1199B) resistant to fluoroquinolones due to overexpression of the NorA multidrug efflux pump. Coagulase-negative Staphylococcus strains included three reference strains purchased from CRBIP: a methicillin-susceptible S. epidermidis strain (ATCC 12228), a methicillin-resistant S. epidermidis strain (ATCC 49461), and a methicillin-susceptible S. sciuri strain (ATCC 29061). We also used 37 clinical strains belonging to the following coagulase-negative Staphylococcus species: S. arlettae (two strains), S. capitis (nine strains), S. epidermidis (one strain), S. haemolyticus (six strains), S. hominis (eight strains), S. lugdunensis (one strain), S. massiliensis (one strain), S. pettenkoferi (two strains), S. saprophyticus (two strains), S. simulans (one strain), and S. warneri (four strains) . Identification of the clinical strains was first obtained using VITEK® 2 System (Biomérieux) and confirmed by amplification and sequencing of the tuf gene (Reference: Bergeron, M., O. Dauwalder, M. Gouy, A.-M. Freydiere, M. Bes, H. Meugnier, Y. Benito, J. Etienne, G. Lina, F. Vandenesch, and S. Boisset. Species identification of staphylococci by amplification and sequencing of the tuf gene compared to the gap gene and by matrix-assisted laser desorption ionization time-of-flight mass spectrometry, Eur. J. Clin. Microbial. Infect. Dis. 2011, 30, 343-354).
(§5) The activity of the pyrrolic compounds 3c and 3i was further tested against 32 clinical strains belonging to 11 coagulase-negative Staphylococcus species.

[2] = tested on: Staphylococcus capitis (CHUG-Scapi3); settings: clinical strain
Experimental: as §1, §2, §3, §4, §5

[3] = tested on: Staphylococcus simulans (CHUG-Ssim1); settings: clinical strain
Experimental: as §1, §2, §3, §4, §5

[4] = tested on: Staphylococcus haemolyticus (CHUG-Shae7)
Experimental: as §1, §2, §3, §4, §5

[5] = tested on: Staphylococcus capitis (CHUG-Scapi10); settings: clinical strain
Experimental: as §1, §2, §3, §4, §5

[6] = tested on: Staphylococcus warneri (CHUG-Swar4); settings: clinical strain
Experimental: as §1, §2, §3, §4, §5

[7] = tested on: Staphylococcus capitis (CHUG-Scapi2); settings: clinical strain
Experimental: as §1, §2, §3, §4, §5

[8] = tested on: Staphylococcus haemolyticus (CHUG-Shae4)
Experimental: as §1, §2, §3, §4, §5

[9] = tested on: Staphylococcus hominis (CHUG-Shom5); settings: clinical strain
Experimental: as §1, §2, §3, §4, §5

[10] = tested on: Staphylococcus hominis (CHUG-Shom7); settings: clinical strain
Experimental: as §1, §2, §3, §4, §5

[11] = tested on: Staphylococcus massiliensis (CHUG-Smas1); settings: clinical strain
Experimental: as §1, §2, §3, §4, §5

[12] = tested on: Staphylococcus hominis (CHUG-Shom3); settings: clinical strain
Experimental: as §1, §2, §3, §4, §5

[13] = tested on: Staphylococcus pettenkoferi (CHUG-Spet2); settings: clinical strain
Experimental: as §1, §2, §3, §4, §5

[14] = tested on: Staphylococcus lugdunensis (CHUG-Slug1); settings: clinical strain
Experimental: as §1, §2, §3, §4, §5

[15] = tested on: Staphylococcus capitis (CHUG-Scapi9); settings: clinical strain
Experimental: as §1, §2, §3, §4, §5

[16] = tested on: Staphylococcus haemolyticus (CHUG-Shae2)
Experimental: as §1, §2, §3, §4, §5

[17] = tested on: Staphylococcus saprophyticus (CHUG-Ssap2); settings: clinical strain
Experimental: as §1, §2, §3, §4, §5

[18] = tested on: Staphylococcus capitis (CHUG-Scapi6); settings: clinical strain
Experimental: as §1, §2, §3, §4, §5

[19] = tested on: Staphylococcus hominis (CHUG-Shom6); settings: clinical strain
Experimental: as §1, §2, §3, §4, §5

[20] = tested on: Staphylococcus warneri (CHUG-Swar2); settings: clinical strain
Experimental: as §1, §2, §3, §4, §5

[21] = tested on: Staphylococcus arlettae (CHUG-Sarl2, meti-R)
Experimental: as §1, §2, §3, §4, §5

[22] = tested on: Staphylococcus hominis (CHUG-Shom8); settings: clinical strain
Experimental: as §1, §2, §3, §4, §5

[23] = tested on: Staphylococcus saprophyticus (CHUG-Ssap1); settings: clinical strain
Experimental: as §1, §2, §3, §4, §5

| SMILES | MIC [1] | MIC [2] | MIC [3] | MIC [4] | MIC [5] | MIC [6] | MIC [7] | MIC [8] | MIC [9] | MIC [10] | MIC [11] | MIC [12] | MIC [13] | MIC [14] | MIC [15] | MIC [16] | MIC [17] | MIC [18] | MIC [19] | MIC [20] | further results |
| --- | --- | --- | --- | --- | --- | --- | --- | --- | --- | --- | --- | --- | --- | --- | --- | --- | --- | --- | --- | --- | --- |
| CC(=O)c1c(C)[nH]c(C(c2ccc(Cl)cc2)c2[nH]c(C)c(C(C)=O)c2C)c1C [3c] | > 32 µg/mL | 8 µg/mL (≈ 20.2 µM) | > 32 µg/mL | 16 µg/mL (≈ 40.3 µM) | 8 µg/mL (≈ 20.2 µM) | 16 µg/mL (≈ 40.3 µM) | 16 µg/mL (≈ 40.3 µM) | 16 µg/mL (≈ 40.3 µM) | 8 µg/mL (≈ 20.2 µM) | > 32 µg/mL | > 32 µg/mL | > 32 µg/mL | > 32 µg/mL | > 32 µg/mL | 8 µg/mL (≈ 20.2 µM) | > 32 µg/mL | > 32 µg/mL | 8 µg/mL (≈ 20.2 µM) | > 32 µg/mL | 8 µg/mL (≈ 20.2 µM) | MIC [21]: > 32 µg/mL; MIC [22]: > 32 µg/mL; MIC [23]: > 32 µg/mL |
| CC(=O)c1c(C)[nH]c(C(c2[nH]c(C)c(C(C)=O)c2C)c2csc3ccccc23)c1C [3i] | 16 µg/mL (≈ 38.2 µM) | 1 µg/mL (≈ 2.39 µM) | > 32 µg/mL | 4 µg/mL (≈ 9.56 µM) | 2 µg/mL (≈ 4.78 µM) | 4 µg/mL (≈ 9.56 µM) | 2 µg/mL (≈ 4.78 µM) | 4 µg/mL (≈ 9.56 µM) | 16 µg/mL (≈ 38.2 µM) | 8 µg/mL (≈ 19.1 µM) | > 16 µg/mL | > 32 µg/mL | > 16 µg/mL | > 16 µg/mL | 2 µg/mL (≈ 4.78 µM) | 8 µg/mL (≈ 19.1 µM) | 8 µg/mL (≈ 19.1 µM) | 1 µg/mL (≈ 2.39 µM) | > 32 µg/mL | 1 µg/mL (≈ 2.39 µM) | MIC [21]: 16 µg/mL (≈ 38.2 µM); MIC [22]: > 32 µg/mL; MIC [23]: 8 µg/mL (≈ 19.1 µM) |
